Measured values reported in patent US9023878B2 (Neurophyxia B.V., priority 2010, dated 2015).
“And” between values parts separate entries of the source, which are not always exact repeats. Equal values may be shown once. Marks after values point to notes of the source that are not given here.

Key:
[1] = Solubility of 2-IB in water at different pH; type: physicochemical
[2] = Solubility of 2-IB (5 mg/ml) using different acids; type: physicochemical
[3] = Solubility in citrate buffers (excess 2-IB, filtered, RP-HPLC); type: physicochemical
Method: An excess of 2-IB was added to citrate buffers, mixed at room temperature and then filtered to remove nonsolubilised 2-IB.

[4] = Visual inspection after 12 hours storage at 5° C.; type: physicochemical
[5] = Solubility of 2-IB in 10% SBE-CD at different pH adjusted with 0.1 M citric acid (HPLC); type: physicochemical
Method: The experimental steps are shown as below.
1. Weigh 0.5 g of SBE-CD into 10 ml glass vial
2. Add 3 ml WFI into each vial to dissolve SBE-CD
4. Magnetic stirring for 1 h
5. Adjust pH to target pH with 0.1 M citric acid
6. Determine the weight of 0.1 M citric acid added
7. Add WFI to total weight of 5 g
8. Measure pH again after 1 hour stirring
9. Filtrate through the formulation through PVDF 0.22 um filter

[6] = Physical stability of saturated 10% SBE-CD solutions, 5 days at 5° C. and RT; type: physicochemical; conditions: saturated solution
[7] = Formulation preparation: dissolution and titration to higher pH; type: physicochemical; conditions: 1.5 mg/g of 2-IB at pH 7.0, overnight stirring
Excerpt: This might be due to the different approaches for the solubility testing and the formulation preparation. […] The six formulations were all transparent and colorless solutions.
It is not feasible to increase the solubility by preparing a formulation at a low pH first and then titrate to a high pH.

[8] = Excerpt: Necropsy took place approximately one hour after the second injection. Blood and brain samples were collected for both the mother and fetuses.
[9] = Solubility of 2-IB in 10% SBE-CD at different pH adjusted with 0.1 M citric acid (HPLC); type: physicochemical; remark: listed apart in the source
[10] = Solvent selection: stepwise solvent addition, solubility judged visually
Method: Solubility of 2-IB was determined in the following solvents: • 0.9% Sodium chloride in water • 5% Dextrose in water • N,N-dimethylacetamide • N,N-dimethylformamide • Dimethyl sulfoxide • Ethanol • Propolyene glycol • Polyethyleneglycol 400 • Corn oil
Approximately 10 mg of 2-IB was weighed into a 10 ml tube. Subsequently, small aliquots (100 μl-100 μl-200 μl-400 μl-800 μl-1600 μl-3200 μl) of the respective solvents were added stepwise. After each addition, the solution was mixed intensively and visually judged for solubility.
Therefore the experiment was repeated for propylene glycol but with addition of 100 μl 1N hydrochloric acid after 200 μl propylene glycol (i.e. 10 mg 2-IB+200 μl propylene glycol+100 μl 1N hydrochloric acid).
When an acidified 2-IB formulation in 5% dextrose is prepared, the pH after acidification is approximately 2 for nominal 2-IB concentrations in the range 1-5 mg/ml.

[11] = test system: Wistar rats; conditions: 960 mg/kg/24 h 2-IB in 5% Solutol, continuous iv infusion
Method: Group I: Vehicle 20% Solutol (Continuous Intravenous Infusion)
Animals received a continuous infusion of vehicle only (20% Solutol in 5% dextrose) at a dose volume of 4 mL/kg/h for 24 hours.
Group II: Vehicle 5% Solutol (Continuous Intravenous Infusion)
Animals received a continuous infusion of vehicle only (5% Solutol in 5% dextrose) at a dose volume of 4 mL/kg/h for approximately 96 hours.
Group III: 960 mg/kg/24 h of 2-IBin 5% Solutol (Continuous Intravenous Infusion).

[12] = average of 4 litters, maternal dose 55 mg/kg sc, 55 mg/kg
[13] = average of 4 maternal rats, 55 mg/kg sc, 55 mg/kg
[14] = pooled female fetuses per maternal rat, maternal dose 55 mg/kg sc, 55 mg/kg
[15] = pooled male fetuses per maternal rat, maternal dose 55 mg/kg sc, 55 mg/kg

N=C1N[C@H]2[C@H](CS[C@H]2CCCCC(=O)O)N1 [Formulation 2-IB, 2-iminobiotin]
solubility in water ([1]; pH 3.5): around 4.5 mg/ml | solubility in water ([1]; pH 5): around 0.59 mg/ml | solubility in water ([1]; pH 7.4): around 0.34 mg/ml | pH at which solubility was achieved ([2]; HCl): 3.0 | pH at which solubility was achieved ([2]; weak acids (acetic acid and citric acid)): 3.3 | Conc. 2IB ([3]; 50 mM Citrate pH 3.0, final pH 3.07, room temperature): 11000 µg/mL and 11270 µg/mL | Conc. 2IB ([3]; 50 mM Citrate pH 3.5, final pH 3.52): 4450 µg/mL | Conc. 2IB ([3]; 50 mM Citrate pH 4.0, final pH 4.03): 1720 µg/mL | Conc. 2IB ([3]; 50 mM Citrate pH 4.5, final pH 4.54): 860 µg/mL | Conc. 2IB ([3]; 50 mM Citrate pH 5.0, final pH 5.02): 590 µg/mL | Appearance after 12 hours at 5° C. ([4]; saturated in 50 mM Citrate pH 3.0): Precipitated | Appearance after 12 hours at 5° C. ([4]; saturated in 50 mM Citrate pH 3.5): Precipitated | Appearance after 12 hours at 5° C. ([4]; saturated in 50 mM Citrate pH 4.0): Precipitated | Appearance after 12 hours at 5° C. ([4]; saturated in 50 mM Citrate pH 4.5): Precipitated | Appearance after 12 hours at 5° C. ([4]; saturated in 50 mM Citrate pH 5.0): Precipitated | Solubility of 2-IB ([5]; pH 4.0): 13.08 mg/g | Solubility of 2-IB ([5]; pH 4.5): 9.00 mg/g | Solubility of 2-IB ([5]; pH 5.0): 5.2 mg/g and 5.21 mg/g | Solubility of 2-IB ([5]; pH 5.1): 5.30 mg/g | Solubility of 2-IB ([5]; pH 5.5): 3.29 mg/g | Solubility of 2-IB ([5]; pH 6.2): 1.94 mg/g | Solubility of 2-IB ([5]; pH 7.0): 1.71 mg/g | 5 days at 5° C. ([6]; pH 4.0): − | 5 days at RT ([6]; pH 4.0): + | 5 days at 5° C. ([6]; pH 4.5): − | 5 days at RT ([6]; pH 4.5): + | 5 days at 5° C. ([6]; pH 5.0): − | 5 days at RT ([6]; pH 5.0): + | 5 days at 5° C. ([6]; pH 5.1): − | 5 days at RT ([6]; pH 5.1): + | 5 days at 5° C. ([6]; pH 5.5): − | 5 days at RT ([6]; pH 5.5): + | 5 days at 5° C. ([6]; pH 6.2): − | 5 days at RT ([6]; pH 6.2): + | 5 days at 5° C. ([6]; pH 7.0): − | 5 days at RT ([6]; pH 7.0): + | dissolution on formulation preparation [7]: did not dissolve completely after overnight stirring | mortality of maternal animals ([8]; 55 mg/kg sc, Day 20 post-coitum): No mortality occurred | 2-IB concentration in brain, female fetuses, average (±SD) [8, 12]: 369 ng/g and 369 (±72) ng/g | 2-IB concentration in brain, male fetuses, average (±SD) [8, 12]: 329 ng/g and 329 (±72) ng/g | 2-IB plasma concentration, female fetuses, average (±SD) [8, 12]: 1,903 ng/mL and 1,903 (±437) ng/mL | 2-IB plasma concentration, male fetuses, average (±SD) [8, 12]: 1,765 ng/mL and 1,765 (±259) ng/mL | 2-IB concentration in brain, maternal, average (±SD) [8, 13]: 268 ng/g and 268 (±92) ng/g | 2-IB plasma concentration, maternal, average (±SD) [8, 13]: 10,039 ng/mL and 10,039 (±3371) ng/mL | 2-IB concentration in brain sample, maternal ([8]; individual maternal Wistar rats, 55 mg/kg sc, 55 mg/kg): 151 ng/g and 375 ng/g and 270 ng/g and 276 ng/g | 2-IB plasma concentration, maternal ([8]; individual maternal Wistar rats, Day 20 post-coitum, 2 sc injections of 27.5 mg/kg, approximately one hour after second injection, 27.5 mg/kg): 7,104 ng/mL and 14,185 ng/mL and 7,490 ng/mL and 11,378 ng/mL | 2-IB concentration in brain sample, pooled fetuses (females) [8, 14]: 474 (n = 3) ng/g and 317 (n = 8) ng/g and 329 (n = 4) ng/g and 356 (n = 7) ng/g | 2-IB plasma concentration, pooled fetuses (females) [8, 14]: 2,442* (n = 3) ng/mL and 2,063 (n = 8) ng/mL and 1,474 (n = 4) ng/mL and 1,634 (n = 7) ng/mL | 2-IB concentration in brain sample, pooled fetuses (males) [8, 15]: 287 (n = 8) ng/g and 435 (n = 4) ng/g and 283 (n = 5) ng/g and 309 (n = 8) ng/g | 2-IB plasma concentration, pooled fetuses (males) [8, 15]: 1,868 (n = 8) ng/mL and 2,080 (n = 4) ng/mL and 1,598 (n = 5) ng/mL and 1,512 (n = 8) ng/mL | transfer over the placenta and the blood-brain barrier ([8]; two sc injections, total dose level 55 mg/kg): confirmed | solubility with pH-adjustment alone ([9]; pH 4.0, without SBE-CD): 1.72 mg/g | solubility with pH-adjustment alone ([9]; pH 5.0, without SBE-CD): 0.59 mg/g | concentration of fully dissolved and stable solution ([10]; 10 mg 2-IB+200 μl propylene glycol+100 μl 1N hydrochloric acid): 33000 µg/mL | solubility, visually judged ([10]; 10 mg in 6400 μl (1.6 mg/ml) of 0.9% NaCl, 5% dextrose, DMA, DMF, DMSO, ethanol, propylene glycol, PEG 400 or corn oil): not sufficiently soluble in any of these solvents | effect of addition of water ([10]; 33 mg/ml propylene glycol/hydrochloric acid formulation): immediately resulted in precipitation of 2-IB | precipitation, visual observation ([10]; acidified 2-IB in 5% dextrose neutralized to pH 7): nearly all 2-IB has precipitated out of solution | pH up to which partial neutralization is possible before precipitation ([10]; acidified 2-IB in 5% dextrose, nominal 1-5 mg/ml, 0.1% sodium hydroxide): 3-3.5 | solubility, visually judged ([10]; same solvents after addition of 100 μl of 1N hydrochloric acid): fully dissolved in all solvents | bilirubin levels [11]: within the normal range
